Assay results published in US9474790B2, “Stable, protracted GLP-1/glucagon receptor co-agonists for medical use” (Novo Nordisk A/S, priority 2013, dated 2016).
Numbered stars: 1 amine (or outer) side, 2 acyl side, 3 side chain; on linkers, the order of the positions; unused ones are H or OH. Square brackets hold non-standard residues; d marks the D form. Side chains are listed from the residue outwards. Peptide text beside a SMILES is read from it. * marks the point of attachment. C18 diacid = O=C(O)CCCCCCCCCCCCCCCCC(=O)*; γGlu = O=C(O)[C@H](CCC(=O)[*:2])N[*:1]; Ac4c = NC1(C(=O)O)CCC1; AEEA = NCCOCCOCC(=O)O; Aib = CC(C)(N)C(=O)O

Biological target: T1, human GLP-1 receptor (Homo sapiens, UniProt P43220)
T1 construct: expressed in transfected cells; host or cells: BHK cells (parent BHKTS13), clone FCW467-12A/KZ10-1, with CRE luciferase
Test: GLP-1 receptor binding, 125I-GLP-1 displacement SPA on isolated membranes
Details: displacement of 125I-GLP-1 from membranes; read-out: IC50 GLP-1R
How it was run: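 SPA displacement of 125I-GLP-1(7-36)NH2 from membranes of BHK cells expressing human GLP-1 receptor, with WGA beads, in 50 mM HEPES, 5 mM EGTA, 5 mM MgCl2, 0.005% Tween 20, pH 7.4. Incubated 2 h at 30°C; IC50 by non-linear regression, run at ≤0.001% or 2.0% final serum albumin.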

T1 sequence (P43220 24-463): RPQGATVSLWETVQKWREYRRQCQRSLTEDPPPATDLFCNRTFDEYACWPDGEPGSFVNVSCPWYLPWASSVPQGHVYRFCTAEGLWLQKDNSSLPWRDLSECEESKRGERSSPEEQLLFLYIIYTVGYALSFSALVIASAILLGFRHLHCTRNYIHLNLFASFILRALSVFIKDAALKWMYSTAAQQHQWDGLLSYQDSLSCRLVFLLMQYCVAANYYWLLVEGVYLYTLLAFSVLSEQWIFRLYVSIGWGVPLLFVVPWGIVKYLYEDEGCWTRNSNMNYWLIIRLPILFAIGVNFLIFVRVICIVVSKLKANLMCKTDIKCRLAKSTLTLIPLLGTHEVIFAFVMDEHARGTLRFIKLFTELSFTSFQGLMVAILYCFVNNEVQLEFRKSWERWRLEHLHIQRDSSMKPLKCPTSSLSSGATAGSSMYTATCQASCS

| IC50 [nM] | Compound |
| --- | --- |
| 1.1 | CC(C)C[C@H](NC(=O)[C@H](CC(=O)O)NC(=O)[C@H](CC(C)C)NC(=O)[C@H](Cc1ccc(O)cc1)NC(=O)[C@H](CCCNC(=N)N)NC(=O)[C@H](CO)NC(=O)[C@H](CC(C)C)NC(=O)[C@H](CC(=O)O)NC(=O)[C@H](CO)NC(=O)[C@@H](NC(=O)[C@H](Cc1ccccc1)NC(=O)[C@@H](NC(=O)CNC(=O)[C@H](CCC(N)=O)NC(=O)C1(NC(=O)[C@@H](N)Cc2c[nH]cn2)CCC1)[C@@H](C)O)[C@@H](C)O)C(=O)N[C@@H](CCCNC(=N)N)C(=O)N[C@@H](CCCNC(=N)N)C(=O)N[C@@H](C)C(=O)N[C@@H](CCCNC(=N)N)C(=O)N[C@@H](CC(=O)O)C(=O)N[C@@H](Cc1ccccc1)C(=O)N[C@H](C(=O)N[C@@H](CCC(N)=O)C(=O)N[C@@H](Cc1c[nH]c2ccccc12)C(=O)N[C@@H](CC(C)C)C(=O)N[C@@H](CC(C)C)C(=O)N[C@@H](CCCCNC(=O)CC[C@H](NC(=O)CC[C@H](NC(=O)COCCOCCNC(=O)COCCOCCNC(=O)CC[C@H](NC(=O)CC[C@H](NC(=O)CCCCCCCCCCCCCCCCC(=O)O)C(=O)O)C(=O)O)C(=O)O)C(=O)O)C(=O)N[C@H](C(N)=O)[C@@H](C)O)C(C)C [Example 46, N^ε28-[(4S)-4-carboxy-4-[[(4S)-4-carboxy-4-[[2-[2-[2-[[2-[2-[2-[[(4S)-4-carboxy-4-[[(4S)-4-carboxy-4-(17-carboxyheptadecanoylamino)butanoyl]amino]butanoyl]amino]ethoxy]ethoxy]acetyl]amino]ethoxy]ethoxy]acetyl]amino]butanoyl]amino]butanoyl]-[Acb2,Leu10,Arg12,Leu16,Arg20,Leu27,Lys28]-Glucagon amide] (H-H[Ac4c]QGTFTSDLSRYLDLRRARDFVQWLLK([γGlu-γGlu-AEEA-AEEA-γGlu-γGlu-C18 diacid])T-NH2; N-terminus assumed) |
| 1.5 | CC(C)C[C@H](NC(=O)[C@H](Cc1c[nH]c2ccccc12)NC(=O)[C@H](C)NC(=O)[C@@H](NC(=O)[C@H](Cc1ccccc1)NC(=O)[C@H](CCC(=O)O)NC(=O)[C@H](CCCNC(=N)N)NC(=O)[C@H](C)NC(=O)[C@H](CCCNC(=N)N)NC(=O)[C@H](CCCNC(=N)N)NC(=O)[C@H](CO)NC(=O)[C@H](CCC(=O)O)NC(=O)[C@H](CC(C)C)NC(=O)[C@H](Cc1ccc(O)cc1)NC(=O)[C@H](CCCCN)NC(=O)[C@H](CO)NC(=O)[C@H](CC(C)C)NC(=O)[C@H](CC(=O)O)NC(=O)[C@H](CO)NC(=O)[C@@H](NC(=O)[C@H](Cc1ccccc1)NC(=O)[C@@H](NC(=O)CNC(=O)[C@H](Cc1c[nH]cn1)NC(=O)C(C)(C)NC(=O)[C@@H](N)Cc1c[nH]cn1)[C@@H](C)O)[C@@H](C)O)C(C)C)C(=O)N[C@@H](CC(C)C)C(=O)N[C@@H](CCCCNC(=O)CC[C@H](NC(=O)COCCOCCNC(=O)COCCOCCNC(=O)CC[C@H](NC(=O)CC[C@H](NC(=O)CCCCCCCCCCCCCCCCC(=O)O)C(=O)O)C(=O)O)C(=O)O)C(=O)N[C@H](C(N)=O)[C@@H](C)O [Example 31, N^ε28-[(4S)-4-carboxy-4-[[2-[2-[2-[[2-[2-[2-[[(4S)-4-carboxy-4-[[(4S)-4-carboxy-4-(17-carboxyheptadecanoylamino)butanoyl]amino]butanoyl]amino]ethoxy]ethoxy]acetyl]amino]ethoxy]ethoxy]acetyl]amino]butanoyl]-[Aib2,His3,Leu10,Glu15,Arg20,Glu21,Ala24,Leu27, Lys28]-Glucagon amide] (H-H[Aib]HGTFTSDLSKYLESRRAREFVAWLLK([γGlu-AEEA-AEEA-γGlu-γGlu-C18 diacid])T-NH2; N-terminus assumed) |
